The results in this text go back to the METLIN SMRT retention time set (Domingo-Almenara et al. 2019).

This data set can be described thus: gradient 5% acetonitrile 3 min, to 50% in 2 min, to 85% in 15 min, held 3 min, 100 µL/min. As to conditions: column: Zorbax Extend-C18 2.1 x 50 mm; eluents: water / acetonitrile, 0.1% formic acid. Put shortly: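 Over 3 months, pure standards in mixtures of ~100 molecules were run by HPLC coupled to a quadrupole time-of-flight mass spectrometer in positive and negative ionization mode. The column was a Zorbax Extend-C18 (2.1 × 50 mm, 1.8 μm) at 100 μL/min, eluted with water and acetonitrile each holding 0.1% formic acid, with 40 μL dead and 900 μL dwell volumes. Retention time was determined from adduct peaks chosen by software and checked manually.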
In turn, `CN(CC1CCOC1)C(=O)Nc1ccccc1Br` (stereo not given) displayed an RP-LC retention time of 736 s.

For `CCOC(=O)Cn1c(CN(C)Cc2ccccc2)nc2c1c(=O)n(C)c(=O)n2C`, the RP-LC retention time was 643 s.

`Cn1c(=O)c(NCCc2c[nH]c3ccccc23)nc2ccncc21` displayed an RP-LC retention time of 619 s.

Compound `O=C(Nc1ccc(F)c(F)c1)C1CCCN(S(=O)(=O)Cc2ccc(F)cc2)C1` (stereo not given) returned an RP-LC retention time of 990 s.

`CN1C2CC(OC(=O)C(CO)c3ccccc3)CC1C1OC12` (stereo not given) yielded an RP-LC retention time of 640 s.

Turning to `Cc1oc(-c2ccc(C(=O)N3CCN(c4ccccn4)CC3)cc2)nc1CN1CCc2ccccc21`, the RP-LC retention time amounted to 766 s.

As for `Cc1ccc(CNC(=O)c2cc3n(n2)CCCN(Cc2cccc(F)c2)C3=O)o1`, the RP-LC retention time was determined as 853 s.

Turning to `COc1ccc(-c2nc(-c3cn(-c4ccc(F)cc4)nn3)no2)cc1OC`, the RP-LC retention time stood at 960 s.

The compound `O=C(COc1ccccc1)Nc1cnc(N2CCCCCC2)nc1` yielded an RP-LC retention time of 941 s.

With `Cn1c(=O)c(SCC(=O)NCc2ccccc2Cl)nc2cccnc21`, the RP-LC retention time was 786 s.

As to `CCN(CC)CCNC(=O)c1cc2cc(S(=O)(=O)N(C)C)ccc2n1CC`, the RP-LC retention time is 633 s.

`Cc1ccc(CNC(=O)C2(C)CCCN(C(=O)Nc3ccc(C)c(Cl)c3)C2)cc1` (stereo not given) showed an RP-LC retention time of 1110 s.

Compound `CCC(C)n1nnc2cc(S(=O)(=O)N(C)CC(=O)NCCc3c[nH]c4ccccc34)ccc21` (stereo not given) had an RP-LC retention time of 885 s.

As to `O=C(Nc1ccccc1F)NC1CCCN(c2cc(-c3ccncc3)[nH]n2)C1` (stereo not given), the RP-LC retention time was 621 s.

Compound `Cc1cccc(NC(=O)Cn2nc3c(Oc4cccc(Cl)c4)nccn3c2=O)c1` displayed an RP-LC retention time of 899 s.

`CCCOc1ccc(C(=O)N(Cc2ccc(Br)o2)C2CCS(=O)(=O)C2)cc1` (stereo not given) registered an RP-LC retention time of 1010 s.

`COC(=O)C(Cc1ccccc1)NC(=O)C(NC(=O)OCc1ccccc1)C(C)C` (stereo not given) yielded an RP-LC retention time of 894 s.

In turn, `Cn1cnc(S(=O)(=O)NCCc2noc(-c3ccccc3)n2)c1` registered an RP-LC retention time of 703 s.

The compound `CCOc1ccc(OCC)c(NS(=O)(=O)c2cc(-c3cc(CC)no3)cs2)c1` yielded an RP-LC retention time of 1090 s.

`Cc1csc(C(=O)Nc2nnc(SCC(=O)Nc3cccnc3)s2)c1` showed an RP-LC retention time of 597 s.

Take `CCCN1C(=O)c2c(C(=O)NCCc3ccc(C)cc3)ncn2CC1(C)C(=O)NCCC(C)C` (stereo not given): the RP-LC retention time was 907 s.

For `Cc1noc(C2CCCCN2CC(=O)Nc2nccs2)n1` (stereo not given), the RP-LC retention time is 675 s.

`Cc1cccc(N2CCN(Cc3nc4nc(C)cc(N(C)C)n4n3)CC2)c1` returned an RP-LC retention time of 634 s.

Regarding `COc1ccc(NC(=O)C2CC(=O)N(c3n[nH]c4cccc(F)c34)C2)cc1Cl` (stereo not given), the RP-LC retention time is 752 s.

Take `CCCc1ccc(S(=O)(=O)N2CCC(n3c(-c4ccco4)nc4cccnc43)C2)cc1` (stereo not given): the RP-LC retention time was 1010 s.

`O=C(NCCc1ccccc1)C1CN(S(=O)(=O)c2cccnc2)CC12CCCCC2` (stereo not given) yielded an RP-LC retention time of 895 s.

`Cc1cc(C)cc(NC(=O)CN2C(=O)CSc3ccc(C(=O)N(C)C)cc32)c1` displayed an RP-LC retention time of 906 s.

Consider `Cc1nn2c(S(=O)(=O)N3CCSCC3)c(C(C)C)nc2s1`, for which the RP-LC retention time is 862 s.

In turn, `O=C1OC(=O)C2C3CCC(O3)C12` (stereo not given) returned an RP-LC retention time of 559 s.

In turn, `O=C(Nc1ccc(Cl)cc1Cl)c1ccc(Br)cc1F` showed an RP-LC retention time of 1360 s.

`CN1c2cc(C(=O)NCc3ccccc3Br)ccc2C(=O)N2CCCCC21` (stereo not given) gave an RP-LC retention time of 860 s.

In the case of `O=C(NCCn1nnc2cc(C(=O)N3CCCC3)ccc21)Nc1ccc(Cl)cc1`, the RP-LC retention time is 792 s.

Consider `Cc1ccc([N+](=O)[O-])cc1NC(=O)Nc1ccc(S(N)(=O)=O)cc1`, for which the RP-LC retention time is 786 s.

In turn, `COc1ccc(CCc2nc(C3CC(=O)N(c4ccc(F)c(Cl)c4)C3)no2)cc1` (stereo not given) showed an RP-LC retention time of 1040 s.

`CN1C(=O)c2cccn2CC1C(=O)Nc1ccc(F)cc1` (stereo not given) gave an RP-LC retention time of 677 s.

For `COc1ccc(C2(C(=O)Nc3cc(-c4cccnc4)no3)CC2)cc1`, the RP-LC retention time was found to be 816 s.

In the case of `COc1cc(Nc2nc(-c3nnn(-c4ccc(Br)cc4F)c3C)ns2)cc(OC)c1`, the RP-LC retention time is 1120 s.

Regarding `Nc1nc(N)c(-c2cccc(C(F)(F)F)c2)c(Cc2cccc(C(F)(F)F)c2)n1`, the RP-LC retention time came to 741 s.

Consider `COc1nn(C)cc1C(=O)N1CCC(C(=O)NCc2cccs2)CC1`, for which the RP-LC retention time is 613 s.

Compound `O=C(Cc1nnc(-c2cnccn2)o1)NCc1ccccc1` showed an RP-LC retention time of 635 s.

For `Cc1noc([C@@H]2CC(F)(F)CN2C(=O)c2occc2C)n1`, the RP-LC retention time came to 756 s.

For the compound `Cc1cc(C)c2c(-n3cccc3)nn(CC(=O)NCC(C)c3ccccc3)c2n1` (stereo not given), the RP-LC retention time amounted to 1040 s.

With `O=C(Cn1c(-c2ccc(F)cc2)nc2ccccc21)N1CCOCC1`, the RP-LC retention time was 592 s.

As to `CC(NC(=O)CCNc1c(-c2cccc(F)c2)nc2cnccn12)c1cccs1` (stereo not given), the RP-LC retention time was determined as 728 s.

Consider `O=C(NCc1nc(-c2ccc(N3CCCC3)cc2)no1)c1cccs1`, for which the RP-LC retention time was 962 s.

Take `COC[C@@H]1CN(Cc2cccc(C#N)c2)C[C@H]1c1ccccn1`: the RP-LC retention time is 608 s.

With `Fc1ccc(Nc2nc(-c3cccc(Cl)c3)cs2)nc1`, the RP-LC retention time is 1190 s.

`COc1ccc2nc(C(=O)NC3CCCCCC3)cn2n1`: the RP-LC retention time was 878 s.

Regarding `COc1cccc(CN2C[C@@H](CO)[C@H](c3nc(C4CC4)no3)C2)n1`, the RP-LC retention time stood at 618 s.

Compound `CN(C)c1ccc(C(=O)N2CCc3cn(C)c4cccc(c34)C2)cc1` gave an RP-LC retention time of 671 s.

The compound `CS(=O)(=O)N1C[C@H]2CCN(Cc3cccc(F)c3F)C[C@H]21` gave an RP-LC retention time of 575 s.

Consider `O=C(CN1CCCc2nc(C3CC3)ncc2C1=O)NC1CCCCC1`, for which the RP-LC retention time was found to be 723 s.

Compound `Cc1ccn2c(NC(=O)c3ccc(F)cc3)c(-c3ccc(F)cc3)nc2c1` had an RP-LC retention time of 672 s.

As to `C=CCn1c(=O)c2ccccc2n(Cc2nc(-c3ccccc3)no2)c1=O`, the RP-LC retention time amounted to 1000 s.

The compound `Cc1nc2ccccc2c(=O)n1Cc1noc(C(=O)NCCC2=CCCCC2)n1` displayed an RP-LC retention time of 915 s.

For the compound `CCS(=O)(=O)N1CCC2(CC1)NC(=O)N(Cc1ccc(Cl)cc1)C2=O`, the RP-LC retention time amounted to 767 s.

Turning to `O=C(NC1CCN(c2cc(-c3ccc(F)cc3)[nH]n2)CC1)C1COc2ccccc2O1` (stereo not given), the RP-LC retention time was found to be 824 s.

`CCCCOc1ccc(-c2cc3c4nnc(CCC(=O)N5CCC(C(N)=O)CC5)n4ccn3n2)cc1` came in with an RP-LC retention time of 729 s.

In turn, `O=C(Cn1ccc2ccccc21)NCc1c(F)cccc1F` came in with an RP-LC retention time of 826 s.

In the case of `C[C@H]1CN(C(=O)c2c(F)cccc2F)C[C@@H]1c1nc(-c2ccccc2)no1`, the RP-LC retention time is 1020 s.

In the case of `Cc1ccc(NC(=O)N2CC(c3nc(CCOCC4CCCC4)no3)C2)cc1C`, the RP-LC retention time amounted to 1060 s.

With `O=C(Nc1ccc(Br)cc1F)C1CCN(C(=O)c2cc(-c3ccncc3)n[nH]2)CC1`, the RP-LC retention time was 632 s.

Turning to `CCc1ccc(C(=O)NCCc2nc3cccnc3n2CC)cc1`, the RP-LC retention time was determined as 694 s.

`Cc1ccccc1CNC(=O)c1c(C)sc2ccn(CC(C)C)c(=O)c12` showed an RP-LC retention time of 1010 s.

Take `Cc1noc(COC2CCN(C(=O)c3ccc4ccccc4n3)CC2)n1`: the RP-LC retention time amounted to 707 s.

With `Cc1ccc2nc(-c3cccc(S(=O)(=O)N4CC(C)OC(C)C4)c3)cn2c1` (stereo not given), the RP-LC retention time is 640 s.

`O=c1c2sccc2n(Cc2nc(-c3ccc(F)c(Cl)c3)no2)c(=O)n1-c1cccc(F)c1` yielded an RP-LC retention time of 1070 s.

Regarding `O=C(NCc1ccc(N2CCOCC2)cc1)C1CCCN(c2nccnc2Sc2ccccc2)C1` (stereo not given), the RP-LC retention time is 933 s.

As to `COc1ccc(C2Cn3cnc(C(=O)N4CCC(C(=O)NCCc5cccs5)CC4)c3CO2)cc1` (stereo not given), the RP-LC retention time turned out to be 691 s.

`CCn1cnc(S(=O)(=O)N2CCC(C(=O)NCCc3ccc(OC)c(OC)c3)CC2)c1` registered an RP-LC retention time of 661 s.

In the case of `O=C(O)c1cc2cc(OCc3ccccc3)ccc2[nH]1`, the RP-LC retention time stood at 903 s.

The compound `CCOCCCNC(=O)c1nc(Nc2ccc(C)cc2)c2ccccc2n1` yielded an RP-LC retention time of 746 s.

For `CS(=O)(=O)N(Cc1ccncc1)C1CN(S(=O)(=O)c2ccccc2)C1`, the RP-LC retention time was 595 s.

For the compound `Cc1cc(C)cc(-n2c(CN3CCN(C(=O)Nc4ccc5c(c4)OCO5)CC3)nc3cccnc32)c1`, the RP-LC retention time came out at 676 s.

Regarding `COc1ncc(C(=O)Nc2ccc(F)cc2C)c(C)n1`, the RP-LC retention time is 638 s.

Regarding `COc1cc(Nc2ncc(F)c(Nc3ccc4c(n3)N(COP(=O)(O)O)C(=O)C(C)(C)O4)n2)cc(OC)c1OC`, the RP-LC retention time was found to be 653 s.

The compound `Cc1ccc(S(=O)(=O)N2CCC3(CC2)NCCN=C3NCc2ccccc2F)c(C)c1` came in with an RP-LC retention time of 747 s.

As for `O=C(NCCNC(=O)c1ccc2c(c1)OCO2)c1ccc(NC(=O)C2CC2)cc1`, the RP-LC retention time amounted to 650 s.

For the compound `O=c1c2ccccc2ncn1-c1ccc(Cl)cc1`, the RP-LC retention time amounted to 870 s.

Take `CCOCCCNS(=O)(=O)c1cc(-c2nc(C)c(C)s2)sc1C`: the RP-LC retention time came to 961 s.
